Values after ≈ are worked out from the molar mass of the structure shown. One block for each compound: values may come before it.
Columns and labels:
[1] = target: Sodium channel protein type 3 subunit alpha (Homo sapiens, UniProt Q9NY46); assay: Inhibition of human NaV1.3 expressed in HEK cells by electrophysiological method; assay type: cell-based
[2] = Lipophilicity, log D of the compound; assay type: physicochemical; details: octanol/water
[3] = Dissociation constant, pKa of compound; assay type: physicochemical
[4] = target: Sodium channel protein type 2 subunit alpha (Homo sapiens, UniProt Q99250); assay: Inhibition of human NaV1.2
[5] = target: Sodium channel protein type 8 subunit alpha (Homo sapiens, UniProt Q9UQD0); assay: Inhibition of human NaV1.6
[6] = Aqueous solubility of compound; assay type: physicochemical; details: buffer
[7] = target: Sodium channel protein type 4 subunit alpha (Homo sapiens, UniProt P35499); assay: Inhibition of human NaV1.4
[8] = target: Sodium channel protein type 9 subunit alpha (Rattus norvegicus, UniProt O08562); assay: Inhibition of rat NaV1.7
[9] = target: Sodium channel protein type 10 subunit alpha (Homo sapiens, UniProt Q9Y5Y9); assay: Inhibition of human NaV1.8
[10] = Clearance in human liver microsomes; assay type: ADME, microsome; details: read-out: CLH
[11] = target: Sodium channel protein type 9 subunit alpha (Homo sapiens, UniProt Q15858); assay: Inhibition of human NaV1.7
[12] = target: Sodium channel protein type 5 subunit alpha (Homo sapiens, UniProt Q14524); assay: Inhibition of human NaV1.5
MDR1 = assay: Efflux ratio of permeability across basolateral to apical over apical to basolateral side in RRCK cells expressing MDR1; assay type: ADME, cell-based, Canis lupus familiaris, MDCKII-LE; details: dog, MDCK-MDR1
[13] = target: Sodium channel protein type 3 subunit alpha (Rattus norvegicus, UniProt P08104); assay: Inhibition of rat NaV1.3 by electrophysiological method
[14] = target: Sodium channel protein type 1 subunit alpha (Homo sapiens, UniProt P35498); assay: Inhibition of human NaV1.1
CYP2C9 = CYP2C9 (Homo sapiens, UniProt P11712); assay: Inhibition of CYP2C9 (unknown origin) at 3 uM by high throughput assay relative to control; assay type: ADME
[15] = Clearance in rat; assay type: ADME, organism-based; details: in vivo
[16] = Oral bioavailability in rat; assay type: ADME, organism-based; details: in vivo
[17] = target: Voltage-gated inwardly rectifying potassium channel KCNH2 (Homo sapiens, UniProt Q12809); assay: Inhibition of human ERG
[18] = Volume of distribution in rat; assay type: ADME, organism-based; details: in vivo
CYP3A4 = CYP3A4 (Homo sapiens, UniProt P08684); assay: Inhibition of CYP3A4 (unknown origin) at 3 uM by high throughput assay relative to control; assay type: ADME
Sequence of CYP3A4 (P08684 whole entry): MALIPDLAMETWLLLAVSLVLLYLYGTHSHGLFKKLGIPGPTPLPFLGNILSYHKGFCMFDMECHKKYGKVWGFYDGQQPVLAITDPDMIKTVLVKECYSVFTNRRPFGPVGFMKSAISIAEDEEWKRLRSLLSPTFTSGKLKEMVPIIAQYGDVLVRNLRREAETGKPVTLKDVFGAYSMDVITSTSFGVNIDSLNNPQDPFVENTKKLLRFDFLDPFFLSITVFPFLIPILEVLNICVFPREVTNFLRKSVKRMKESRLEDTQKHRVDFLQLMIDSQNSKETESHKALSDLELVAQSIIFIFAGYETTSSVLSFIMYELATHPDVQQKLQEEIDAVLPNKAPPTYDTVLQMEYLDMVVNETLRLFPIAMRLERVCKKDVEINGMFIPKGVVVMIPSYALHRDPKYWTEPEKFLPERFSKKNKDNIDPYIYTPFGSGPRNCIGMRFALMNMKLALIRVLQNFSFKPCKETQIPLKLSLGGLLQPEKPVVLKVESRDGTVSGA

Sequence of Sodium channel protein type 3 subunit alpha (Homo sapiens, UniProt Q9NY46) (Q9NY46 whole entry): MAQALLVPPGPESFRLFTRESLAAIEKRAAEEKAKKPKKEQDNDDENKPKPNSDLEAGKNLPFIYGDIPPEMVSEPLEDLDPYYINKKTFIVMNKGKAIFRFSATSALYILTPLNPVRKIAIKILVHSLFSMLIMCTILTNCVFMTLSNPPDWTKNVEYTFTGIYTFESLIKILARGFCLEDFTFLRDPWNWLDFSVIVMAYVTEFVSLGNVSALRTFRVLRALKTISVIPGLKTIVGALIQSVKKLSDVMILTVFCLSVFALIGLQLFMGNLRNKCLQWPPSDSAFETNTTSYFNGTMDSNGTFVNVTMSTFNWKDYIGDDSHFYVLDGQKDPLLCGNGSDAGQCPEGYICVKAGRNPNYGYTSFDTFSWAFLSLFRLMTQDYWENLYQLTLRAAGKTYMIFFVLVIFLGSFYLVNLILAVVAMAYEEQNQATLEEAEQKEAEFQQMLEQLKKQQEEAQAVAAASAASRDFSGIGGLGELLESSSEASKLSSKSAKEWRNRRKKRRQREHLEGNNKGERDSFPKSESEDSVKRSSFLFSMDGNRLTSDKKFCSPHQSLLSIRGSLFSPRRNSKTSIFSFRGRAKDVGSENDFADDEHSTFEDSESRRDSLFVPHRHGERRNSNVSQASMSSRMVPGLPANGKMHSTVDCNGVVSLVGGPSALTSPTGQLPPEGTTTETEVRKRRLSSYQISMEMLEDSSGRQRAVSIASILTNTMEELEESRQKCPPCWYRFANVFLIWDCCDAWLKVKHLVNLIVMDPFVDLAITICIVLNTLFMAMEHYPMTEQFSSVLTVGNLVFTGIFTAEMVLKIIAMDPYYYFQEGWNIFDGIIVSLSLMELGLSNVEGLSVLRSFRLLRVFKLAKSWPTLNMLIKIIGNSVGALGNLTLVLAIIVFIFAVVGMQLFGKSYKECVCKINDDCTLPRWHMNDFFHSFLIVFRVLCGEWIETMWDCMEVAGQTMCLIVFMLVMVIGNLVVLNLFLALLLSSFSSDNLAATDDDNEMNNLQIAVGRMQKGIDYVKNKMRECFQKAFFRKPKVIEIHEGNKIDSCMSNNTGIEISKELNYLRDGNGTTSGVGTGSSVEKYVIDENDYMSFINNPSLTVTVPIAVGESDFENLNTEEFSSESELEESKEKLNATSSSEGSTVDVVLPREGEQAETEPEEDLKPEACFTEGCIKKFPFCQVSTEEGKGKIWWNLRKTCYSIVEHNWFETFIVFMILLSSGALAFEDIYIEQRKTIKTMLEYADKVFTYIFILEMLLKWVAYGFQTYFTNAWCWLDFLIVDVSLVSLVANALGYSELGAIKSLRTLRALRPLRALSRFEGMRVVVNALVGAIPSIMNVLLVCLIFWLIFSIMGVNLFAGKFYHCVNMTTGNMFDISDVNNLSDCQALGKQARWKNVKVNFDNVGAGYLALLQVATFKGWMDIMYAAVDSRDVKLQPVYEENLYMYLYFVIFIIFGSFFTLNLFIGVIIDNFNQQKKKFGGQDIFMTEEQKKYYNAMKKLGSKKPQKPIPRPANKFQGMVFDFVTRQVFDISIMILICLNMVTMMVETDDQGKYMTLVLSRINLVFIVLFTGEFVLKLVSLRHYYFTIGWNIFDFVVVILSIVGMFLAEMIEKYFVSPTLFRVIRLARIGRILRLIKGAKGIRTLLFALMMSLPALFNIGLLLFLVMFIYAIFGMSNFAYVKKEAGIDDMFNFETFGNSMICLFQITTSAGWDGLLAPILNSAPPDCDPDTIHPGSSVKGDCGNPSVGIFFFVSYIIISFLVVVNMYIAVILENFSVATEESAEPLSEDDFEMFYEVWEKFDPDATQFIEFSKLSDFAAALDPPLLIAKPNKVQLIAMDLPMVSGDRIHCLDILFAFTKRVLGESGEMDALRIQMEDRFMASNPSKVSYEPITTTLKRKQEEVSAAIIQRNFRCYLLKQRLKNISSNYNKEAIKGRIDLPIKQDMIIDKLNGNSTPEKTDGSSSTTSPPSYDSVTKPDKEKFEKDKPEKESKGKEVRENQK
Sequence of Sodium channel protein type 2 subunit alpha (Q99250 whole entry): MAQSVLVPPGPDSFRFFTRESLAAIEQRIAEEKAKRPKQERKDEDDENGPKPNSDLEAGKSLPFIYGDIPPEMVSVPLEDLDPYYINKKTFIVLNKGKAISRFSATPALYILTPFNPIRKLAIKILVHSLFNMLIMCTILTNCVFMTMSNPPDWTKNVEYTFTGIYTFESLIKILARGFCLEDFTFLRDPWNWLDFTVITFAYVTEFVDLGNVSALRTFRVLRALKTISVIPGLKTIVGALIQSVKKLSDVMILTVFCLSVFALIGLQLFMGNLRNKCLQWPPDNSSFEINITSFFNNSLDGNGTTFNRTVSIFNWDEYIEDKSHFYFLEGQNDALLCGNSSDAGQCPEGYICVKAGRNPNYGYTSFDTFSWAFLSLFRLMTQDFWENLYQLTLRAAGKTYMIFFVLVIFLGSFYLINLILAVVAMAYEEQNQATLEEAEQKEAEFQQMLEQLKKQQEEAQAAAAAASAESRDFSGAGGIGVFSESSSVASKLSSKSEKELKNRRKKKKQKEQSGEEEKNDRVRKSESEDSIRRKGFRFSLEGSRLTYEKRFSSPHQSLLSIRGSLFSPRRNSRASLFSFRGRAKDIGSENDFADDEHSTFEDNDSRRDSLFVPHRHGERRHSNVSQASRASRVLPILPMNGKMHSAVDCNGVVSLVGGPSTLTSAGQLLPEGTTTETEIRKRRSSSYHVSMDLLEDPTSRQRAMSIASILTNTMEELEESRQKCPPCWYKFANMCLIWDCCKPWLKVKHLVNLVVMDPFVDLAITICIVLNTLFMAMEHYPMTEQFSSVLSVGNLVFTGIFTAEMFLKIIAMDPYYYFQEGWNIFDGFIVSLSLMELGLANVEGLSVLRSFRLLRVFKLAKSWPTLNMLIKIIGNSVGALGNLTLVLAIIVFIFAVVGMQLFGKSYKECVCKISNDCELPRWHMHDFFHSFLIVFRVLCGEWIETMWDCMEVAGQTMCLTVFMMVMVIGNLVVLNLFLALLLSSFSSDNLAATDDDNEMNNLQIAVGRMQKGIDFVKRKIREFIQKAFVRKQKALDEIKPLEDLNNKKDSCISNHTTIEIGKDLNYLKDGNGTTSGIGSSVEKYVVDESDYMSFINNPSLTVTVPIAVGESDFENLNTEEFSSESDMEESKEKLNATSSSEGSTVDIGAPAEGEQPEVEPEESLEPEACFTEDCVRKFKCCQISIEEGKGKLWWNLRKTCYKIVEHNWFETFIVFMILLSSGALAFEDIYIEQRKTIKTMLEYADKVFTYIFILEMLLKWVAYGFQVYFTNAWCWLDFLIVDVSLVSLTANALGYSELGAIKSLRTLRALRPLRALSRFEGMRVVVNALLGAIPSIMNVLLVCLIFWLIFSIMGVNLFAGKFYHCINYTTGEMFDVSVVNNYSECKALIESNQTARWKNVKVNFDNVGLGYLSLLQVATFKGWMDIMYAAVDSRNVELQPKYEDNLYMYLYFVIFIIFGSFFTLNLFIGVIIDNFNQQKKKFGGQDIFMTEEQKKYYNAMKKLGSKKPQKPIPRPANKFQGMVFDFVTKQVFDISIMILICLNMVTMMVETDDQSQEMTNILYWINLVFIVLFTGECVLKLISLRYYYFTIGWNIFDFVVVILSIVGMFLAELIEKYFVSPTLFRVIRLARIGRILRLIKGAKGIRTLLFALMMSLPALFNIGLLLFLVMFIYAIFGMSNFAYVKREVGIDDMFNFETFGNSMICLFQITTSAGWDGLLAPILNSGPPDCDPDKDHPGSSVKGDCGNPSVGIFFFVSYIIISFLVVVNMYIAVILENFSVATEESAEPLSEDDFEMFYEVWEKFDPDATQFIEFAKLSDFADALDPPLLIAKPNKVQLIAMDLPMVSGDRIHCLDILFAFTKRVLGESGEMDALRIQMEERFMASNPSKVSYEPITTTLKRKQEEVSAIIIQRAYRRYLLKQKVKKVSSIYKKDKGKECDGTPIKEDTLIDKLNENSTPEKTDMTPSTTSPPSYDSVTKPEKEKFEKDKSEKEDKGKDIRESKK
Sequence of CYP2C9 (P11712 whole entry): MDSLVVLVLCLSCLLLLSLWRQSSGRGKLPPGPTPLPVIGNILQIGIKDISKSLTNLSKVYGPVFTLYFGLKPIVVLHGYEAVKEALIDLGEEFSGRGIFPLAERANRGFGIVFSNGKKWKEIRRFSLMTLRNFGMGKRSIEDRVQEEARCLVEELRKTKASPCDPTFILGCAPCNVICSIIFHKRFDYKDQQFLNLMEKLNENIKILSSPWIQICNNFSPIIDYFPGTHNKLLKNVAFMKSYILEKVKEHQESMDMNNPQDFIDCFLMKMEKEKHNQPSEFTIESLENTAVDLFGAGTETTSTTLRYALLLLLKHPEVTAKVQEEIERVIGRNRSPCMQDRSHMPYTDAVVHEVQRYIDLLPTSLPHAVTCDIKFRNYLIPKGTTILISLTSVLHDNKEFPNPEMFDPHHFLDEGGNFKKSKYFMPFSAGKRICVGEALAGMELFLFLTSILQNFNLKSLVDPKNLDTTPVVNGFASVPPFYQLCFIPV

IC50 [1]: 851 nM
Structure (SMILES): O=S(=O)(Nc1nccs1)c1ccc(S(=O)(=O)N2CC[C@H](Oc3ccc(C(F)(F)F)cn3)C2)cc1F

IC50 [1]: 45 nM
Structure (SMILES): O=S(=O)(Nc1nccs1)c1ccc(-c2nnc(Cc3ccc(Cl)c(Cl)c3)[nH]2)cc1

logD [2]: 2.4
IC50 [1]: 1790 nM
Structure (SMILES): O=C(NCc1ccc(OC(F)(F)F)c(Cl)c1)c1ccc(S(=O)(=O)Nc2cccnn2)c(F)c1

IC50 [1]: 1640 nM
Structure (SMILES): O=S(=O)(Nc1nccs1)c1ccc(S(=O)(=O)N2CCC(c3cccc(C(F)(F)F)n3)CC2)cc1F

logD [2]: 1.3
IC50 [1]: 237 nM
Structure (SMILES): O=C(c1ccc(OC(F)(F)F)c(Cl)c1)N1CC(OCc2ccc(S(=O)(=O)Nc3ncns3)cc2)C1

IC50 [1]: > 3000 nM
Structure (SMILES): O=S(=O)(Nc1nccs1)c1ccc(S(=O)(=O)N2CCC[C@@H]2CNc2ncnc3[nH]ccc23)cc1F

pKa [3]: 4.6
logD [2]: 2
IC50 [1]: > 3000 nM
Structure (SMILES): O=C(NCc1ccc(OC(F)(F)F)c(Cl)c1)c1ccc(S(=O)(=O)Nc2cncnc2)c(F)c1

logD [2]: 1.3
IC50 [1]: 522 nM
Structure (SMILES): CN(Cc1ccc(OC(F)(F)F)c(Cl)c1)C(=O)c1ccc(S(=O)(=O)Nc2ncns2)c(F)c1

logD [2]: 2.6
IC50 [1]: 197 nM
Structure (SMILES): O=C(NCc1ccc(OC(F)(F)F)cc1)c1ccc(S(=O)(=O)Nc2nccs2)cc1

IC50 [4]: 393 nM
IC50 [5]: 10300 nM
solubility [6]: 268 µg/mL (≈ 596 µM)
IC50 [7]: 10000 nM
IC50 [8]: 68 nM
IC50 [9]: 3000 nM
logD [2]: 3.3
microsomal CLint [10]: 15 µL/min/mg
IC50 [11]: 5200 nM
efflux ratio (MDR1): 30
IC50 [13]: 6 nM
IC50 [1]: 17 nM
IC50 [14]: 32 nM
inhibition at 3 µM (CYP2C9): 79%
Structure (SMILES): O=C(Nc1ccc(S(=O)(=O)Nc2nccs2)cc1)C(c1ccccc1)c1ccccc1
IC50 [12]: 9200 nM

IC50 [1]: 3790 nM
Structure (SMILES): O=C(Cc1ccccc1)Nc1ccc(S(=O)(=O)Nc2nccs2)cc1

IC50 [1]: 160 nM
Structure (SMILES): O=S(=O)(NCc1ccc(C(F)(F)F)cc1)c1ccc(S(=O)(=O)Nc2nccs2)cc1

IC50 [1]: 1830 nM
Structure (SMILES): O=S(=O)(Nc1nccs1)c1ccc(S(=O)(=O)N2CCCCC2c2cc(-c3ccccc3)[nH]n2)cc1F (stereo not given)

pKa [3]: 3.3
clearance [15]: 4.4 mL/min/kg
IC50 [4]: 920 nM
IC50 [5]: 2100 nM
solubility [6]: 369 µg/mL (≈ 722 µM)
IC50 [9]: 11300 nM
logD [2]: 2.1
microsomal CLint [10]: < 8 µL/min/mg
bioavailability [16]: 4%
IC50 [11]: 1800 nM
efflux ratio (MDR1): 1
IC50 [1]: 13 nM
Vd [18]: 0.1 L/kg
inhibition at 3 µM (CYP3A4): 88%
IC50 [14]: 12 nM
inhibition at 3 µM (CYP2C9): 88%
Structure (SMILES): O=C(NCc1ccc(OC(F)(F)F)c(Cl)c1)c1ccc(S(=O)(=O)Nc2ncns2)c(F)c1
IC50 [12]: 4870 nM
IC50 [17]: > 100000 nM

logD [2]: 2.5
IC50 [1]: 147 nM
Structure (SMILES): O=C(NCc1ccc(C(F)(F)F)cc1)c1ccc(S(=O)(=O)Nc2nccs2)cc1

logD [2]: 0.4
IC50 [1]: 1270 nM
Structure (SMILES): O=C(COc1ccc(F)cc1)N1CCc2cc(S(=O)(=O)Nc3ncns3)ccc21

From ChEMBL document CHEMBL4257443, “The discovery of a potent Nav1.3 inhibitor with good oral pharmacokinetics” (Medchemcomm, 2017)
